Test results from paper PMC11154582, “Modeling the Blood-Brain Barrier Permeability of Potential Heterocyclic Drugs via Biomimetic IAM Chromatography Technique Combined with QSAR Methodology” (Molecules, 2024).
Read-outs that look alike come from different tables or passages of the source.

What was measured:
[1] = Biomimetic IAM chromatography (log kw, IAM); assay type: physicochemical; conditions: IAM.PC.DD2 column, buffered acetonitrile, pH 7.4, 25 °C, extrapolated to buffer
Protocol: High performance liquid chromatography (HPLC) measurements were performed on a Shimadzu Vp liquid chromatographic system (Shimadzu, Izabelin, Poland). This instrument was equipped with LC 10AT pump, SPD 10A ultraviolet-visible detector, SCL 10A system controller, CTO-10 AS chromatographic oven, and a Rheodyne injector valve with a 20 μL loop. As the stationary phase Regis IAM.PC.DD2 column, 100 × 4.6 mm i.d., 10 μm (Morton Grove, IL, USA) was applied.
Buffered acetonitrile mixtures were used as effluents. Acetonitrile concentration, expressed as a volume fraction, was varied within a range from 0.2 to 0.5, with a constant step of 0.1. The buffer was prepared from 0.01 mol L^−1 solutions of Na2HPO4 and citric acid, and a pH value of 7.4 was fixed before mixing with an organic modifier. The flow rate was 1.3 mL min^−1. Each compound sample was dissolved in acetonitrile to obtain a concentration of 0.005 mg mL^−1, and each solute peak was detected under ultraviolet light at a wavelength of λmax = 254 nm. Each measurement was performed at a constant temperature (25 °C) at least three times. The dead time values were measured from sodium chloride peaks.
From among 126 heterocyclic compounds evaluated in this work (Table 1), 89 structures have been investigated previously on the IAM column: these are molecules from groups III, IV, V, VI, VII, VIII, IX, XI, XIII, and XV [21, 22, 23]. The remaining ones, i.e., 37 compounds from groups I, II, X, XII and XIV, were tested in this study for the first time using the biomimetic IAM chromatographic technique. To calculate the log kw values (i.e., the logarithms of retention parameter in the buffer as the mobile phase), the retention parameters, logs k (k = (tr − t0)/t0; where tr is the solute retention time, and t0 is a dead time), that were measured for all tested compounds, were used according to Soczewiński-Wachtmeister’s equation (Equation (5)): (5) log k=logtr−t0/t0=log kw−sφ where φ denotes the volume fraction of acetonitrile as organic modifier in the mobile phase, and kw means the retention parameter corresponding to buffer as the mobile phase. The log kw values were evaluated as linear regression coefficients (Table 2).

[2] = test system: Staphylococcus aureus ATCC 25923; set-up: method as in ref [3] (a number printed in a supplementary file, which may have a reference list of its own: not looked up in the article's list); conditions: versus ampicillin; supplement ref [3]; cited from earlier work
bacteria = test system: bacteria; set-up: method as in ref [3] (a number printed in a supplementary file, which may have a reference list of its own: not looked up in the article's list); conditions: supplement ref [3], cited from earlier work
Pseudomonas aeruginosa = test system: Pseudomonas aeruginosa; set-up: method as in ref [3] (a number printed in a supplementary file, which may have a reference list of its own: not looked up in the article's list); conditions: versus chloramphenicol and ampicillin; supplement ref [3]; cited from earlier work
[3] = IAM column, cited from earlier work
[4] = set-up: method as in ref [19] (a number printed in a supplementary file, which may have a reference list of its own: not looked up in the article's list); conditions: supplement ref [19]; cited from earlier work
[5] = set-up: method as in ref [21,22] (a number printed in a supplementary file, which may have a reference list of its own: not looked up in the article's list); conditions: supplement ref [21,22]; cited from earlier work
[6] = test system: hepatic adenosine A2A receptors; set-up: method as in ref [22] (a number printed in a supplementary file, which may have a reference list of its own: not looked up in the article's list); conditions: antagonizes stimulatory effect of a selective A2A receptor agonist; supplement ref [22]; cited from earlier work
[7] = set-up: method as in ref [8,16] (a number printed in a supplementary file, which may have a reference list of its own: not looked up in the article's list); conditions: supplement ref [8,16]; cited from earlier work
[8] = set-up: method as in ref [22] (a number printed in a supplementary file, which may have a reference list of its own: not looked up in the article's list); conditions: supplement ref [22]; cited from earlier work

Cc1ccc(N2CCn3c(COc4ccc(Cl)cc4C)nnc32)cc1 [Compound 9]
log kw, IAM [1]: 1.95
antibacterial activity against Staphylococcus aureus ATCC 25923 [2]: comparable
antibacterial activity (bacteria): antibacterial

Clc1ccc(OCc2nnc3n2CCN3c2ccc(Cl)c(Cl)c2)c(Cl)c1 [Compound 13]
antibacterial potency against Pseudomonas aeruginosa ATCC 25923 (Pseudomonas aeruginosa): superior
log kw, IAM [1]: 2.91
selectivity of antibacterial activity (bacteria; Gram-negative strains): selective activity on Gram-negative strains of bacteria
antibacterial activity (bacteria): antibacterial

CCc1nnc2n(c1=O)CCN2c1ccc(Cl)c(Cl)c1 [Compound 28]
log kw, IAM ([3]; ref [23]): 1.85
antiviral activity [4]: antiviral

COc1ccc(N2CCn3c2nnc(C(=O)NN)c3=O)cc1 [Compound 53]
antiradical activity [5]: antiradical
action towards hepatic adenosine A2A receptors [6]: antagonistic
log kw, IAM ([3]; ref [21]): −0.10
analgesic activity [7]: analgesic
scavenging of the superoxide anion radical [8]: able to scavenge
